{"source": "ChEMBL document CHEMBL1268898", "about": "“Metallocene catalyzed synthesis of fungistatic vicinal aminoalcohols under solvent free conditions” (2010)", "key": {"[1]": {"test_system": "Botrytis cinerea", "assay": "Fungistatic activity against Botrytis cinerea assessed as inhibition of fungal growth at 100 mg/L relative to control", "assay_type": "functional", "conditions": "read-out: GI"}, "[2]": {"test_system": "Colletotrichum gloeosporioides", "assay": "Fungistatic activity against Colletotrichum gloeosporioides assessed as inhibition of fungal growth at 100 mg/L relative to control", "assay_type": "functional", "conditions": "read-out: GI"}}}
{"smiles": "Cc1ccc(NC(CO)c2ccccc2)cc1", "note": "(stereo unspecified)", "values": [{"measurement": "inhibition of growth at 100 µg/mL", "setting": "[1]", "result": 63, "unit": "%"}, {"measurement": "inhibition of growth at 100 µg/mL", "setting": "[2]", "result": 40, "unit": "%"}]}
{"smiles": "O=[N+]([O-])c1ccc(NC(CO)c2ccccc2)cc1", "note": "(stereo unspecified)", "values": [{"measurement": "inhibition of growth at 100 µg/mL", "setting": "[1]", "result": 69, "unit": "%"}, {"measurement": "inhibition of growth at 100 µg/mL", "setting": "[2]", "result": 55, "unit": "%"}]}
{"smiles": "Cc1ccc(NCC(C)(C)O)cc1", "values": [{"measurement": "inhibition of growth at 100 µg/mL", "setting": "[1]", "result": 62, "unit": "%"}, {"measurement": "inhibition of growth at 100 µg/mL", "setting": "[2]", "result": "< 30", "unit": "%"}]}
{"smiles": "Cc1ccc(NCC(O)COc2ccccc2)cc1", "note": "(stereo unspecified)", "values": [{"measurement": "inhibition of growth at 100 µg/mL", "setting": "[1]", "result": 87, "unit": "%"}, {"measurement": "inhibition of growth at 100 µg/mL", "setting": "[2]", "result": 72, "unit": "%"}]}
{"smiles": "Cc1ccc(N(CC(O)COc2ccccc2)CC(O)COc2ccccc2)cc1", "note": "(stereo unspecified)", "values": [{"measurement": "inhibition of growth at 100 µg/mL", "setting": "[1]", "result": 53, "unit": "%"}, {"measurement": "inhibition of growth at 100 µg/mL", "setting": "[2]", "result": "< 30", "unit": "%"}]}
{"smiles": "CN(C)S(=O)(=O)N(SC(F)(Cl)Cl)c1ccccc1", "note": "[DICHLOFLUANID]", "values": [{"measurement": "inhibition of growth at 100 µg/mL", "setting": "[1]", "result": "> 95", "unit": "%"}]}
